{"source": "patent US20240350488A1", "about": "“METHODS OF TREATING SWI/SNF DEREGULATED CANCERS” (Fred Hutchinson Cancer Center, priority 2023, published 2024)", "key": {"[1]": {"molecular_target": "T1, eEF2K (Mus musculus, UniProt O08796)", "T1 construct": "from tissue; host or cells: bladder urothelium of Arid1a^fl/fl mice dosed in vivo", "T1 sequence (O08796 1-724)": "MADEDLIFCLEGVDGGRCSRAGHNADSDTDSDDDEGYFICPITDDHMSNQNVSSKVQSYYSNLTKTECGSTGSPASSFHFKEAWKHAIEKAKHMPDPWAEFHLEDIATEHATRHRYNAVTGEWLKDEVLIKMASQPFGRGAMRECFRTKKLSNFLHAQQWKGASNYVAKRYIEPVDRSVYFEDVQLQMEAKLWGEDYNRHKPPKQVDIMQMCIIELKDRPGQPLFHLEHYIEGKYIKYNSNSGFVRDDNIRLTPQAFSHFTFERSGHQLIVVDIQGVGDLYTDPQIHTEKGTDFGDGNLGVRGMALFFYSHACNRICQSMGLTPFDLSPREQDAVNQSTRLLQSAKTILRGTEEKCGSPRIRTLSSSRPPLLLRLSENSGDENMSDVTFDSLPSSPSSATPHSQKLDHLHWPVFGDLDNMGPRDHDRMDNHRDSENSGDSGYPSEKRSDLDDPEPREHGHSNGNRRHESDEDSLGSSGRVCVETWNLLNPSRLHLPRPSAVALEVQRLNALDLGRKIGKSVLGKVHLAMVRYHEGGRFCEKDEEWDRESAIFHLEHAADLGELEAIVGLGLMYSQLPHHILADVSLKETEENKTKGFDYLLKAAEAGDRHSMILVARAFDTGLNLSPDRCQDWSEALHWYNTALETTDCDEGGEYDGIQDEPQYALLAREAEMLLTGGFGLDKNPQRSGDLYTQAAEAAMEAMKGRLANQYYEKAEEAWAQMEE", "assay": "IHC of phospho-eEF2 (T56) in Arid1a^fl/fl mice after eEF2K inhibitor treatment", "assay_type": "in vivo", "details": "A-484954 10 mg/kg IP daily for 15 days", "description": "(§1) Bladder samples were collected, fixed in 4% paraformaldehyde (PFA), dehydrated with ethanol, and embedded in paraffin wax. Paraffin blocks were sectioned (5 μm) using a rotary microtome and hematoxylin and eosin (H&E) stained. Immunohistochemistry (IHC) staining was performed after rehydrating the tissue. In brief, antigen retrieval was performed by preheating in sodium citrate buffer (pH 6.0 or pH 9) solution for 7-30 minutes at 95° C.-125° C. in a pressure cooker. Hydrogen peroxidase (Vector Laboratories) treatment was done for 5 minutes to quench endogenous peroxides. Tissue was blocked in 1% BSA for 1 hour. Primary antibodies were applied and incubated at room temperature for 1 hour in a humidified chamber followed by secondary antibody (EnVision™ system HRP-labeled polymer, Dako, K4003). Color development was achieved by applying 3,3′-diaminobenzidine (DAB) solution (Agilent Technology) for 2 to 5 minutes, depending on the primary antibody. The sections were counterstained with hematoxylin (Agilent Technology), washed, and cover-slipped using aqueous-based mounting medium (Agilent Technology). All IHC slides were scanned using Aperio ScanScope AT Turbo (Leica Biosystems). […]"}, "[2]": {"tested_on": "protein synthesis in Arid1a^fl/fl bladders", "assay": "In vivo puromycin incorporation assay in Arid1a^fl/fl mice after eEF2K inhibitor treatment", "design": "species or system mouse", "details": "A-484954 10 mg/kg IP daily for 15 days", "description": "Immunofluorescent (IF) staining was performed in the following manner. Antigen retrieval was conducted by preheating in sodium citrate buffer (pH 6.0) for 30 minutes at 95° C. in a pressure cooker. Tissue was blocked in 1% BSA solution for 2 hours or in M.O.M® blocking reagent (Vector Laboratories) for 1 hour at room temperature, followed by blocking in 1% BSA solution for 2 hours. Primary antibodies were applied overnight at 4° C. in a humidified chamber, and secondary antibodies (Alexa Fluor® 594; Alexa Fluor® 488; or Alexa Fluor® 647 (Invitrogen)) were applied for 1 hour at room temperature. All IF slides were mounted using ProLong™ gold mounting media with DAPI (Fisher Scientific, P36935). IF slides were scanned using an Aperio Scanscope FL (Leica Biosystems). The following primary antibodies were used for IF study: anti-Cytokeratin 5 (Biolegend Inc), anti-puromycin (EMD Millipore), anti-p-eEF2K (S366) (Cell Signaling Technology), anti-ARID1A (Sigma), or anti-Cytokeratin 5 (Abcam). Image analysis was done using semiautomated image analysis software (HALO, Indica Labs).\nFor the in vivo puromycin incorporation assay, mice were injected i.p. with 200 μL of 2.5 mM puromycin (Fisher) and euthanized after 1 hour. For in vitro puromycin incorporation assay, cells were treated with 1 μM puromycin for 30 minutes at 37° C. […]"}, "[3]": {"tested_on": "Arid1a^fl/fl mouse urothelium", "assay": "γH2AX and CC3 staining of Arid1a^fl/fl urothelium, A-484954 pretreatment before 9-day BBN", "assay_type": "in vivo", "details": "Arid1a^fl/fl mice pretreated with A-484954 before a 9-day course of BBN", "description": "as §1"}}, "data": [{"compound": "CCn1c(=O)c2cc(C(N)=O)c(N)nc2n(C2CC2)c1=O", "note": "[A-484954]", "values": [{"measurement": "eEF2 phosphorylation (T56)", "setting": "[1]", "result": "attenuation of eEF2 phosphorylation"}, {"measurement": "protein synthesis (puromycin incorporation)", "setting": "[2]", "result": "restoration of protein synthesis"}, {"measurement": "DNA damage (γH2AX)", "setting": "[3]", "result": "markedly decreased"}, {"measurement": "apoptosis (CC3)", "setting": "[3]", "result": "markedly decreased"}]}]}
